Measurements from US8420114B2, “Alpha and beta adrenergic receptor agonists for treatment of pain and / or inflammation” (Warsaw Orthopedic, Inc., priority 2008, dated 2013).

How the values were obtained:
[1] = system: rat Chronic Constriction Injury model (Bennett Model) of neuropathic pain; assay: Hargreaves test of thermal hyperalgesia (thermal paw withdrawal latency) in rat chronic constriction injury model; format: in vivo, Wistar rat
Description: (§1) The inventors evaluated the efficacy of a various alpha-2-adrenergic receptor agonists and compared them against saline in the rat Chronic Constriction Injury model (i.e., Bennett Model) using Wistar rats. […] The doses given would mimic those achievable by a continuous release drug depot containing a biodegradable polymer (7 rats in each group).
Each group received the treatment indicated above for total of 15 days and subjected to the following two tests: (1) the Hargreaves test on days 7 and 14; and (2) the von Frey test on days 8 and 15.
(§2) Results from another rat chronic constriction injury model study silimar to that discussed in Example 5, except some drug compositions having predominantly alpha 1 agonist activity and some drug compositions having predominantly alpha 2 agonist activity were given as indicated in the table below. The doses given would mimic those achievable by a continuous release drug depot containing a biodegradable polymer (7 rats in each group). […]
(§3) The inventors evaluated the efficacy of a various beta-2-adrenergic receptor agonists and compared them to clonidine (an alpha-2-agonist) and saline in the rat Chronic Constriction Injury model (i.e., Bennett Model) using Wistar rats.
(§4) Hargreaves tests were conducted on days 7 and 14; and von Frey tests were performed on days 8 and 15, where some drug compositions having predominantly beta-2 agonist activity were compared to clonidine a drug composition that has predominantly alpha-2 agonist activity and saline. The doses given would mimic those achievable by a continuous release drug depot containing a biodegradable polymer (7 rats in each group).
Each group received the treatment indicated above for total of 15 days and the following two tests: (1) the Hargreaves test on days 7 and 14; and (2) the von Frey test on days 8 and 15.

[2] = system: rat Chronic Constriction Injury model (Bennett Model) of neuropathic pain; assay: von Frey monofilament test of mechanical allodynia (mechanical threshold) in rat chronic constriction injury model; format: in vivo, Wistar rat
Description: as §1, with “group). […]” for “group).”
as §2, §3
as §4, with “[…],” for “and von Frey tests were performed on days 8 and 15,”, “group). […]” for “group).”

[3] = Example 7, FIG. 40, 5 mg/kg subcutaneous every day for 15 days, day 14, vs saline
[4] = Example 5, FIG. 36, 100 micrograms/kg subcutaneous every day for 15 days, days 7 and 14

CC(NCCc1ccc(O)cc1)C(O)c1ccc(O)cc1 (centres unmarked) [ritodrine]
pain behavioral response for thermal hyperalgesia ([1]; Example 7, FIG. 39, 2 mg/kg subcutaneous every day for 15 days, day 7, vs saline): statistically significant result of decreasing pain responses
pain behavioral response for thermal hyperalgesia ([1]; Example 7, FIG. 39, 5 mg/kg subcutaneous every day for 15 days, day 14, vs saline): statistically significant result of decreasing pain responses
pain behavioral response for mechanical allodynia [2, 3]: statistically significant result of decreasing pain responses

Cc1cc(C(C)(C)C)c(O)c(C)c1CC1=NCCN1 [oxymetazoline]
pain behavioral response for thermal hyperalgesia ([1]; Example 6, FIG. 37, 0.1 mg/kg subcutaneous every day for 15 days, day 7): statistically significant result of decreasing pain responses
pain behavioral response for thermal hyperalgesia ([1]; Example 6, FIG. 37, 0.3 mg/kg subcutaneous every day for 15 days, days 7 and 14): statistically significant result of decreasing pain responses
pain behavioral response for mechanical allodynia ([2]; Example 6, FIG. 38, 0.1 mg/kg subcutaneous every day for 15 days, day 8 and 15, compared to saline): decreasing pain responses
pain behavioral response for mechanical allodynia ([2]; Example 6, FIG. 38, 0.3 mg/kg subcutaneous every day for 15 days, day 8 and 15, compared to saline): decreasing pain responses

Clc1ccc2nsnc2c1NC1=NCCN1 [tizanidine]
pain behavioral response for thermal hyperalgesia [1, 4]: statistically significant result of decreasing pain responses
pain behavioral response for mechanical allodynia ([2]; Example 5, FIG. 35, 100 micrograms/kg subcutaneous every day for 15 days, day 15, vs saline): statistically significant results of decreasing pain responses

CNC[C@H](O)c1cccc(O)c1 [phenylephrine]
pain behavioral response for thermal hyperalgesia ([1]; Example 6, FIG. 37, 2 mg/kg subcutaneous every day for 15 days, day 7): statistically significant result of decreasing pain responses
pain behavioral response for thermal hyperalgesia ([1]; Example 6, FIG. 37, 10 mg/kg subcutaneous every day for 15 days, days 7 and 14): statistically significant result of decreasing pain responses
pain behavioral response for mechanical allodynia ([2]; Example 6, FIG. 38, 10 mg/kg subcutaneous daily, day 8, compared to saline): decreased mechanical allodynia

Cc1cccc(C(C)c2cnc[nH]2)c1C (centres unmarked) [medetomidine]
pain behavioral response for thermal hyperalgesia [1, 4]: statistically significant result of decreasing pain responses
pain behavioral response for thermal hyperalgesia ([1]; Example 5, FIG. 36, 200 micrograms/kg subcutaneous every day for 15 days, day 14): statistically significant result of decreasing pain responses
pain behavioral response for mechanical allodynia ([2]; Example 5, FIG. 35, 200 micrograms/kg subcutaneous every day for 15 days, day 15, vs saline): statistically significant results of decreasing pain responses

CC(C)(C)NCC(O)c1ccc(O)c(CO)c1 (centres unmarked) [salbutamol]
pain behavioral response for thermal hyperalgesia ([1]; Example 7, FIG. 39, 5 mg/kg subcutaneous every day for 15 days, days 7 and 14, vs saline): statistically significant result of decreasing pain responses
pain behavioral response for thermal hyperalgesia ([1]; Example 7, FIG. 39, 10 mg/kg subcutaneous every day for 15 days, days 7 and 14, vs saline): statistically significant result of decreasing pain responses
pain behavioral response for mechanical allodynia [2, 3]: statistically significant result of decreasing pain responses
pain behavioral response for mechanical allodynia ([2]; Example 7, FIG. 40, 10 mg/kg subcutaneous every day for 15 days, days 8 and 15, vs saline): statistically significant result of decreasing pain responses

CC(C)(C)NCC(O)c1cc(O)cc(O)c1 (centres unmarked) [terbutaline]
pain behavioral response for thermal hyperalgesia ([1]; Example 7, FIG. 39, 0.1 mg/kg subcutaneous every day for 15 days, days 7 and 14, vs saline): statistically significant result of decreasing pain responses
pain behavioral response for thermal hyperalgesia ([1]; Example 7, FIG. 39, 0.5 mg/kg subcutaneous every day for 15 days, days 7 and 14, vs saline): statistically significant result of decreasing pain responses
pain behavioral response for mechanical allodynia ([2]; Example 7, FIG. 40, 0.5 mg/kg subcutaneous every day for 15 days, day 14, vs saline): statistically significant result of decreasing pain responses

N=C(N)N/N=C/c1c(Cl)cccc1Cl [guanabenz]
pain behavioral response for thermal hyperalgesia ([1]; Example 6, FIG. 37, 1 mg/kg subcutaneous every day for 15 days, day 7): statistically significant result of decreasing pain responses
pain behavioral response for mechanical allodynia ([2]; Example 6, FIG. 38, 1 mg/kg subcutaneous daily, day 8, compared to saline): decreased mechanical allodynia
pain behavioral response for mechanical allodynia ([2]; Example 6, FIG. 38, 5 mg/kg subcutaneous daily, day 15, compared to saline): decreased mechanical allodynia

N=C(N)NC(=O)Cc1c(Cl)cccc1Cl [guanfacine]
pain behavioral response for thermal hyperalgesia ([1]; Example 5, FIG. 36, 5 mg/kg subcutaneous every day for 15 days, days 7 and 14): statistically significant result of decreasing pain responses
pain behavioral response for mechanical allodynia ([2]; Example 5, FIG. 35, 5 mg/kg subcutaneous every day for 15 days, day 15, vs saline): statistically significant results of decreasing pain responses

Clc1cccc(Cl)c1N=C1NCCN1 [clonidine, 2,6-dichloro-N-2-imidazolidinyldenebenzenamine]
pain behavioral response for thermal hyperalgesia ([1]; Example 5, FIG. 36, 0.02 mg/kg subcutaneous every day for 15 days, days 7 and 14): statistically significant result of decreasing pain responses
pain behavioral response for thermal hyperalgesia ([1]; Example 6, FIG. 37, 0.02 mg/kg subcutaneous every day for 15 days, days 7 and 14): statistically significant result of decreasing pain responses
pain behavioral response for thermal hyperalgesia ([1]; Example 7, FIG. 39, 0.02 mg/kg subcutaneous every day for 15 days, day 14, vs saline): statistically significant result of decreasing pain responses
pain behavioral response for mechanical allodynia ([2]; Example 5, FIG. 35, 0.02 mg/kg subcutaneous every day for 15 days, day 15, vs saline): statistically significant results of decreasing pain responses
pain behavioral response (measured as a percentage of baseline) for mechanical allodynia ([2]; clonidine subcutaneously 0.02 mg/kg/day, compared to unloaded polymer depots, FIG. 4): reduced the behavioral response
